ChEMBL document CHEMBL1201862, “PubChem BioAssay data set” (2004)
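In this assay, cells in 96-well plates receive the compound at five concentrations for 48 hours. Endpoints are linearly interpolated between the surrounding concentrations. GI50 = concentration required for 50% inhibition of growth.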 Active and inactive are the calls of the source. Cut-off read from the data, not from the text of the source: active = GI50 up to about 1.1 µM and inactive = higher.

Tests used:
Assay in all cases: NCI tumour cell line growth inhibition, 48 h
[1] = test system: A498
[2] = test system: A549
[3] = test system: HCT-15
[4] = test system: HL-60
[5] = test system: HOP-92
[6] = test system: Hs-578T
[7] = test system: K562
[8] = test system: M14
[9] = test system: MDA-MB-231
[10] = test system: NCI-H226
[11] = test system: NCI-H522
[12] = test system: PC-3
[13] = test system: RPMI-8226
[14] = test system: SF-539
[15] = test system: SK-MEL-5
[16] = test system: SK-OV-3
[17] = test system: SN12C
[18] = test system: UACC-257
[19] = test system: SK-MEL-2

| SMILES | GI50 [1] | GI50 [2] | GI50 [3] [µM] | GI50 [4] | GI50 [5] | GI50 [6] | GI50 [7] | GI50 [8] | GI50 [9] | GI50 [10] | GI50 [11] | GI50 [12] | GI50 [13] | GI50 [14] | GI50 [15] | GI50 [16] | GI50 [17] | GI50 [18] | GI50 [19] |
| --- | --- | --- | --- | --- | --- | --- | --- | --- | --- | --- | --- | --- | --- | --- | --- | --- | --- | --- | --- |
| Cc1cc(C)nc(NS(=O)(=O)c2ccc(NC(=O)c3cccc4c(NNc5ccc(S(=O)(=O)N=C(N)N)cc5)c5ccccc5nc34)cc2)n1 | > 50 µM (inactive) | > 50 µM (inactive) | > 50 | > 50 µM (inactive) | > 50 µM (inactive) | > 50 µM (inactive) | > 50 µM (inactive) | > 50 µM (inactive) | > 50 µM (inactive) | > 50 µM (inactive) | > 50 µM (inactive) | > 50 µM (inactive) | > 50 µM (inactive) | > 50 µM (inactive) | > 50 µM (inactive) | > 50 µM (inactive) | > 50 µM (inactive) | > 50 µM (inactive) |  |
| Oc1ccc2ccccc2c1-c1nnc(CCCCCCCCc2nnc(-c3c(O)ccc4ccccc34)o2)o1 | 16.5 µM (inactive) | 3.85 µM (inactive) | 0.815 | 0.319 µM (active) | 9.82 µM (inactive) | > 84.9 µM (inactive) | 0.955 µM (active) | 1.34 µM (inactive) | 3.52 µM (inactive) | 10.4 µM (inactive) | 0.63 µM (active) | 1.98 µM (inactive) | 2.72 µM (inactive) | 1.52 µM (inactive) | 0.838 µM (active) | 18.1 µM (inactive) | 1.21 µM (inactive) | 10.2 µM (inactive) | 5.87 µM (inactive) |
| CC1=C(C(=O)NNC(=O)C[N+](C)(C)C)CC(C(=O)NNC(=O)C[N+](C)(C)C)=C(C)N1 | 61.7 µM (inactive) | > 100 µM (inactive) | > 100 | 24.9 µM (inactive) | 71.8 µM (inactive) | > 100 µM (inactive) | > 100 µM (inactive) | > 100 µM (inactive) | > 100 µM (inactive) | > 100 µM (inactive) | > 100 µM (inactive) | > 100 µM (inactive) | > 100 µM (inactive) | > 100 µM (inactive) | > 100 µM (inactive) | > 100 µM (inactive) | > 100 µM (inactive) | > 100 µM (inactive) | > 100 µM (inactive) |
| COC(=O)C1CCC(=O)N1C(c1ccc(OC)cc1)c1cc(OC)c(OC)c(OC)c1 (stereo unspecified) | 0.705 µM (active) | 0.449 µM (active) | 0.381 | 0.245 µM (active) | > 100 µM (inactive) | 0.184 µM (active) | 0.256 µM (active) | 0.322 µM (active) | 3.24 µM (inactive) | 0.324 µM (active) | 0.047 µM (active) | 0.288 µM (active) | 0.239 µM (active) | 0.274 µM (active) | 0.252 µM (active) | 0.968 µM (active) | 0.531 µM (active) |  | 0.649 µM (active) |
| COc1cc2c(cc1OC)C13CCN4CC5CCOC6CC(=O)N2C1C6C5CC43 (stereo unspecified) | > 100 µM (inactive) | > 100 µM (inactive) | > 100 | > 100 µM (inactive) | > 100 µM (inactive) | > 100 µM (inactive) |  | > 100 µM (inactive) | > 100 µM (inactive) | > 100 µM (inactive) | > 100 µM (inactive) | > 100 µM (inactive) | > 100 µM (inactive) | > 100 µM (inactive) | > 100 µM (inactive) | > 100 µM (inactive) | > 100 µM (inactive) | > 100 µM (inactive) | > 100 µM (inactive) |
| Nc1nc(Cl)cc(NCC2CC(O)(CO)C2)n1 (stereo unspecified) | > 100 µM (inactive) | > 100 µM (inactive) | > 100 | > 100 µM (inactive) | > 100 µM (inactive) | > 100 µM (inactive) | > 100 µM (inactive) |  | > 100 µM (inactive) | > 100 µM (inactive) | > 100 µM (inactive) | > 100 µM (inactive) | > 100 µM (inactive) | > 100 µM (inactive) | > 100 µM (inactive) | > 100 µM (inactive) | > 100 µM (inactive) | > 100 µM (inactive) | > 100 µM (inactive) |
| c1cc(NNc2cccc(-c3nnn[nH]3)c2)cc(-c2nnn[nH]2)c1 | > 100 µM (inactive) | > 100 µM (inactive) | > 100 |  | > 100 µM (inactive) | > 100 µM (inactive) | > 100 µM (inactive) | > 100 µM (inactive) | > 100 µM (inactive) | > 100 µM (inactive) | > 100 µM (inactive) | > 100 µM (inactive) | > 100 µM (inactive) | > 100 µM (inactive) | > 100 µM (inactive) | > 100 µM (inactive) | > 100 µM (inactive) | > 100 µM (inactive) | > 100 µM (inactive) |
| COc1ccc(NC(=O)CC(=O)N2N=C(N(c3ccccc3)c3ccccc3)CC2c2ccccc2)cc1 (stereo unspecified) | > 100 µM (inactive) | > 100 µM (inactive) | > 100 | > 100 µM (inactive) | > 100 µM (inactive) | 98.4 µM (inactive) | > 100 µM (inactive) | > 100 µM (inactive) | > 100 µM (inactive) | > 100 µM (inactive) | > 100 µM (inactive) | > 100 µM (inactive) | > 100 µM (inactive) | > 100 µM (inactive) |  | > 100 µM (inactive) | > 100 µM (inactive) | > 100 µM (inactive) | > 100 µM (inactive) |
